Test results published in US7429291B2, “Print ink containing a plurality of fluorescent coloring materials and inkjet recording method” (Canon Kabushiki Kaisha, priority 2003, dated 2008).

Legend:
[1] = Light absorption spectrum of coloring material; format: physicochemical
Protocol: Next, the present invention will be described more concretely with reference to the examples and the reference examples. Here, measured values obtained with pure-water diluents of coloring materials were used for an absorption wavelength region, a maximum absorption wavelength region, and a fluorescence wavelength region. Using an absorption spectrometer, absorption wavelengths were measured.
A diluent was prepared such that the absorbance thereof was in the range of 0.5 to 0.7. A higher region from a base line as an absorption peak of the coloring material was defined as an absorption wavelength region, and the peak value was defined as a maximum absorption wavelength region. In addition, for fluorescence wavelengths, the measurement conditions were defined such that the fluorescence intensities would not exceed the measurement threshold value. Then, the measurement of fluorescence wavelengths was performed by using the diluent used in the measurement of absorbance and by fixing the excitation wavelengths of the first and second coloring materials at predetermined wavelengths. A region higher than the base line was defined as a fluorescence emission wavelength region.
The absorption wavelength regions of the first and second coloring materials were measured using the spectrophotometer U-3200, manufactured by Hitachi Ltd., after the sample was diluted with pure water 100,000 fold. The absorption wavelength region of the first coloring material ranged from 450 to 620 nm both inclusive, and the maximum absorption wavelength thereof was 565 nm. In addition, the absorption wavelength region of the second coloring material ranged from 300 to 450 nm both inclusive, and the maximum absorption wavelength thereof was 372 nm.

[2] = Fluorescence emission and excitation spectra of coloring material in evaporated ink (FP-750); format: physicochemical; conditions: excitation at 254 nm
Text: Hereinafter, the print ink of the present invention will be described with reference to the drawings. Unless noted as a recorded image or a printed matter, the results are with an evaporated ink in which water was removed by evaporation and coloring materials are dispersed in an organic solvent. The print ink according to each embodiment of the present invention contains a first fluorescent coloring material that emits fluorescence of a predetermined wavelength that is used for measurement or determination, with excitation at a predetermined excitation wavelength, a second fluorescent coloring material that emits fluorescence with excitation at the same excitation wavelength, and a liquid medium for solving or dispersing these materials therein.
Aspect 1 is characterized in that the fluorescence emission wavelength region of the second fluorescent coloring material covers at least the peak wavelength range of the excitation spectrum of the first fluorescent coloring material measured for emission at 600 nm (see FIG. 2) and/or the absorption wavelengths in the visible region of the first fluorescent coloring material (see the bottom of FIG. 6). […] Therefore, in FIG. 2, when the predetermined fluorescence wavelength of AR52 is 600 nm (the predetermined excitation wavelength: 254 nm), the peak wavelength range thereof is from 430 nm to 600 nm both inclusive. […]

[3] = absorption spectrum of the figures, normal ink

absorption band in visible region [1, 3] | absorption peak wavelength in visible region [1, 3] | fluorescence emission peak wavelength [2] | maximum absorption wavelength ([1]; Example 1, diluted with pure water 100,000 fold, spectrophotometer U-3200) | Structure (SMILES)
≤ 525 nm | 490 nm | 530 nm | – | O=C([O-])c1ccccc1-c1c2ccc(=O)cc-2oc2cc([O-])ccc12.[Na+].[Na+] [AY73, C.I. Acid Yellow 73]
– | 565 nm | 600 nm | 565 nm | CCN(CC)c1ccc2c(-c3ccc(S(=O)(=O)[O-])cc3S(=O)(=O)[O-])c3ccc(=[N+](CC)CC)cc-3oc2c1.[Na+] [C.I. Acid Red 52]
